The record followed here is US11179397B2, “Imidazopyrimidine derivatives” (Gilead Sciences, Inc., priority 2018, dated 2021).

Broadly, the EC50 is the concentration at which the effect is half-maximal. One may read the IC50 as the midpoint of a concentration-inhibition curve.

For assay [1], the system named is NCI-H358 cells. In words: NCI-H358 3D tumor spheroid growth inhibition. In kind it is cell-based. Particulars: Homo sapiens, NCI-H358, 168 h, 3D spheroids, 7 days, 3D CellTiter Glo; cellular IC50 designated EC50; read-out: H358 EC50. An outline of the steps:
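Cells seeded at 1000/well in ultra-low-attachment plates at 37 °C, 5% CO2 to form spheroids, then incubated a further 7 days with compounds. Viability by 3D CellTiter Glo luminescence; % inhibition versus DMSO wells, with normalized cellular IC50 reported as EC50.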
For orientation: In ATP-based viability assays light output follows the ATP content of the culture.

For assay [2], the target named is SHP-2 full length protein (Homo sapiens (Human), UniProt Q06124). In words: SHP-2 biochemical DiFMUP pseudosubstrate-fluorogenic assay. The following applies: 0.2 nM SHP-2, 1 μM IRS-1 activator peptide, 50 μM DiFMUP; read-out: SHP2 IC50. In outline: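 In-house recombinant full-length SHP-2 preincubated 90 min at room temperature with compounds (1:3 series, 10,000–0.005 nM), then DiFMUP substrate added at 50 μM final for 30 min more. Fluorescence normalised to DMSO wells (100%) and IC50 derived by curve fitting.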
Sequence of SHP-2 full length protein (Q06124 whole entry): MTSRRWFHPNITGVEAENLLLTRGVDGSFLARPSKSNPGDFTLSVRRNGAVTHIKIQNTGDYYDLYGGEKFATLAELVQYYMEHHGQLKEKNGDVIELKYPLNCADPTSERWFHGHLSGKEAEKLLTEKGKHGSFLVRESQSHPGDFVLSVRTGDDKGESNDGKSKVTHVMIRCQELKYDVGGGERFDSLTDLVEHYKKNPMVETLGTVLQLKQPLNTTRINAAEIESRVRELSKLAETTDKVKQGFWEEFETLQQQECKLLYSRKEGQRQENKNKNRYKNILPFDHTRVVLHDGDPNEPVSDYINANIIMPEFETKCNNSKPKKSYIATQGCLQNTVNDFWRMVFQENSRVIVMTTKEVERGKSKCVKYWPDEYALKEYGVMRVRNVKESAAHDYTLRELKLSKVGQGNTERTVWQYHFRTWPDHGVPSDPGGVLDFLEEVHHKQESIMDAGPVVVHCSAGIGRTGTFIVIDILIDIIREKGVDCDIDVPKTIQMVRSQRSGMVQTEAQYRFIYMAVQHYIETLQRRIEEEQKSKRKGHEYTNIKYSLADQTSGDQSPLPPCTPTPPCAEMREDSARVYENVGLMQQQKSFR

In the case of `C[C@@H]1OCC2(CCN(c3ncc(Sc4ccnc5[nH]ccc45)c4nccn34)CC2)[C@@H]1N` [Example 130, (3S,4S)-8-(8-((1H-pyrrolo[2,3-b]pyridin-4-yl)thio)imidazo[1,2-c]pyrimidin-5-yl)-3-methyl-2-oxa-8-azaspiro[4.5]decan-4-amine], in assay [1], the concentration giving a half-maximal response (EC50) was 57 nM. The IC50 in assay [2] was determined as 5.7 nM.
The matching figures for `C[C@@H]1OCC2(CCN(c3ncc(Sc4ccnc5[nH]cnc45)c4nccn34)CC2)[C@@H]1N` [Example 131, (3S,4S)-8-(8-((3H-imidazo[4,5-b]pyridin-7-yl)thio)imidazo[1,2-c]pyrimidin-5-yl)-3-methyl-2-oxa-8-azaspiro[4.5]decan-4-amine]: 2100 nM and 27 nM.
The matching figures for `COc1ccc2nccc(Sc3cnc(N4CCC5(CC4)CO[C@@H](C)[C@H]5N)n4ccnc34)c2c1` [Example 132, (3S,4S)-8-(8-((6-methoxyquinolin-4-yl)thio)imidazo[1,2-c]pyrimidin-5-yl)-3-methyl-2-oxa-8-azaspiro[4.5]decan-4-amine]: 290 nM and 22 nM.
Regarding `Cc1nc(N2CCC3(CC2)Cc2ccccc2[C@H]3N)n2ccnc2c1-c1cccc(Cl)c1Cl` [Example 135, (S)-1′-(8-(2,3-dichlorophenyl)-7-methylimidazo[1,2-c]pyrimidin-5-yl)-1,3-dihydrospiro[indene-2,4′-piperidin]-1-amine], the EC50 in assay [1] was found to be 14 nM. The IC50 in assay [2] is 5.4 nM.
Regarding `C[C@@H]1OCC2(CCN(c3ncc(Sc4cccc5ccccc45)c4nccn34)CC2)[C@@H]1N` [Example 136, (3S,4S)-3-methyl-8-(8-(naphthalen-1-ylthio)imidazo[1,2-c]pyrimidin-5-yl)-2-oxa-8-azaspiro[4.5]decan-4-amine], the EC50 in assay [1] is 130 nM. The half-maximal inhibitory concentration (IC50) in assay [2] is 4.3 nM.
The like results for `N[C@@H]1c2ccccc2CC12CCN(c1ncc(Sc3ccnc4sccc34)c3nccn13)CC2` [Example 138, (S)-1′-(8-(thieno[2,3-b]pyridin-4-ylthio)imidazo[1,2-c]pyrimidin-5-yl)-1,3-dihydrospiro[indene-2,4′-piperidin]-1-amine] were, in that order, 11 nM and 2.2 nM.
Turning to `N[C@@H]1c2ccccc2CC12CCN(c1ncc(Sc3ccnc4ccsc34)c3nccn13)CC2` [Example 139, (S)-1′-(8-(thieno[3,2-b]pyridin-7-ylthio)imidazo[1,2-c]pyrimidin-5-yl)-1,3-dihydrospiro[indene-2,4′-piperidin]-1-amine], in assay [1], the EC50 came to 8.9 nM. Besides, in assay [2], the IC50 amounted to 1.7 nM.
The matching figures for `N[C@@H]1c2ccccc2CC12CCN(c1ncc(Sc3cccc4cnsc34)c3nccn13)CC2` [Example 140, (S)-1′-(8-(benzo[d]isothiazol-7-ylthio)imidazo[1,2-c]pyrimidin-5-yl)-1,3-dihydrospiro[indene-2,4′-piperidin]-1-amine]: 18 nM and 2.6 nM.
Regarding `CSc1ccccc1Sc1cnc(N2CCC3(CC2)Cc2ccccc2[C@H]3N)n2ccnc12` [Example 141, (S)-1′-(8-((2-(methylthio)phenyl)thio)imidazo[1,2-c]pyrimidin-5-yl)-1,3-dihydrospiro[indene-2,4′-piperidin]-1-amine], the EC50 in assay [1] worked out at 30 nM. The IC50 in assay [2] is 1.8 nM.
The matching figures for `CCSc1ccccc1Sc1cnc(N2CCC3(CC2)Cc2ccccc2[C@H]3N)n2ccnc12` [Example 142, (S)-1′-(8-((2-(ethylthio)phenyl)thio)imidazo[1,2-c]pyrimidin-5-yl)-1,3-dihydrospiro[indene-2,4′-piperidin]-1-amine]: 60 nM and 4 nM.
The like results for `CC(C)Sc1ccccc1Sc1cnc(N2CCC3(CC2)Cc2ccccc2[C@H]3N)n2ccnc12` [Example 143, (S)-1′-(8-((2-(isopropylthio)phenyl)thio)imidazo[1,2-c]pyrimidin-5-yl)-1,3-dihydrospiro[indene-2,4′-piperidin]-1-amine] were, in that order, 260 nM and 11 nM.
The matching figures for `N[C@@H]1c2ccccc2CC12CCN(c1ncc(Sc3ccnc4cccnc34)c3nccn13)CC2` [Example 144, (S)-1′-(8-((1,5-naphthyridin-4-yl)thio)imidazo[1,2-c]pyrimidin-5-yl)-1,3-dihydrospiro[indene-2,4′-piperidin]-1-amine]: 4.4 nM and 3.6 nM.
Turning to `N[C@@H]1c2ccccc2CC12CCN(c1ncc(Sc3ccnc4ccccc34)c3nccn13)CC2` [Example 145], in assay [1], the EC50 stood at 20 nM. Further, in assay [2], the IC50 was found to be 2.8 nM.
The like results for `N[C@@H]1c2cccnc2CC12CCN(c1ncc(Sc3cccc(Cl)c3Cl)c3nccn13)CC2` [Example 146, (S)-1′-(8-((2,3-dichlorophenyl)thio)imidazo[1,2-c]pyrimidin-5-yl)-5,7-dihydrospiro[cyclopenta[b]pyridine-6,4′-piperidin]-5-amine] were, in that order, 15 nM and 1.7 nM.
The like results for `Nc1nccc(Sc2cnc(N3CCC4(CC3)Cc3ncccc3[C@H]4N)n3ccnc23)c1Cl` [Example 147, (S)-1′-(8-((2-amino-3-chloropyridin-4-yl)thio)imidazo[1,2-c]pyrimidin-5-yl)-5,7-dihydrospiro[cyclopenta[b]pyridine-6,4′-piperidin]-5-amine] were, in that order, 5.5 nM and 4.8 nM.
On to `N[C@H]1c2cccnc2CC12CCN(c1ncc(Sc3cccc(Cl)c3Cl)c3nccn13)CC2` [Example 148, (R)-1′-(8-((2,3-dichlorophenyl)thio)imidazo[1,2-c]pyrimidin-5-yl)-5,7-dihydrospiro[cyclopenta[b]pyridine-6,4′-piperidin]-5-amine], for which the EC50 in assay [1] amounted to 132 nM. For the same compound, in assay [2], the concentration for half-maximal inhibition (IC50) stood at 41 nM.
The matching figures for `Nc1nccc(Sc2cnc(N3CCC4(CC3)Cc3ncccc3[C@@H]4N)n3ccnc23)c1Cl` [Example 149, (R)-1′-(8-((2-amino-3-chloropyridin-4-yl)thio)imidazo[1,2-c]pyrimidin-5-yl)-5,7-dihydrospiro[cyclopenta[b]pyridine-6,4′-piperidin]-5-amine]: 101 nM and 75 nM.
